# Values of other authors as cited in US8618066B1 (priority 2003, dated 2013).
# “Also recorded” adds a separate entry of the source. No end group written: not given here.
# System: Gram+ & Gram− bacteria, fungi, virus, mammalian/cancer cells
# Details: cited from earlier work
row,Substance,Activity
1,"SEQ ID No. 44: synthetic antifungal peptide, Table 1 (MFKLRF)",Fungi
2,"Antimicrobial peptide 1: peptide, source Common ice plant (AKCIKNGKGCREDQGPPFCCSGFCYRQVGWARGYCKNR; Antimicrobial peptide 1; listed as Mesembryanthemum crystallinum)","Gram+ & Gram−, Fungi"
3,"Ranatuerin-2CA: peptide, source Green frog (GLFLDTLKGAAKDVAGKLLEGLKCKIAGCKP; Rana clamitans; Ranatuerin-2CA)","Gram+ & Gram−, Fungi"
4,"Sativum defensin 1 (psd1): peptide, source Seed of Pea (KTCEHLADTYRGVCFTNASCDDHCKNKAHLISGTCHNWKCFCTQNC; Seed of pea defensin 1 (psd1); listed as Pisum sativum)",Fungi
5,FRLKHI [SEQ ID No. 198],"Gram+ & Gram−, Fungi"
6,"Hepcidin 25: peptide, source Human (DTHFPICIFCCGCCHRSKCGMCCKT; Hepcidin 25; listed as Homo sapiens)",Fungi
7,"SEQ ID No. 46: synthetic antifungal peptide, Table 1 (QFKLRF)",Fungi
8,"Cecropin A: peptide, source Nocutuid moth (RWKVFKKIEKVGRNIRDGVIKAAPAIEVLGQAKAL; Cecropin A; listed as Heliothis virescens)","Gram+ & Gram−, Fungi"
9,"SEQ ID No. 178: synthetic antifungal peptide, Table 1 (WHWLQLKPGQPMY; listed as Saccharomyces cerevisiae)",Fungi
10,"Pseudin 1: peptide, source Paradoxical frog (GLNTLKKVFQGLHEAIKLINNHVQ; Pseudin 1; listed as Pseudis paradoxa)","Gram+ & Gram−, Fungi"
11,"SEQ ID No. 29: synthetic antifungal peptide, Table 1 (FLRF)",Fungi
12,"Ranalexin: peptide, source Bull frog (FLGGLIKIVPAMICAVTKKC; Ranalexin; listed as Rana catesbeiana)","Gram+ & Gram−, Fungi"
13,"SEQ ID No. 177: synthetic antifungal peptide, Table 1 (GYFSYPHGNLF; listed as Glomerella cingulata)",Fungi
14,"SEQ ID No. 189: synthetic antifungal peptide, Table 1 (QWCRIHGQSCW; listed as Neurospora crassa)",Fungi
15,"SEQ ID No. 196: synthetic antifungal peptide, Table 1 (WCTWKGQPCW; listed as Fusarium graminearum)",Fungi
16,"Tritrpticin: peptide, source Synthetic (VRRFPWWWPFLRR; Synthetic Tritrpticin)","Gram+ & Gram−, Fungi"
17,"Tachystatin A: peptide, source Horseshoe Crab (YSRCQLQGFNCVVRSYGLPTIPCCRGLTCRSYFPGSTYGRCQRY; Tachystatin A Peptide; listed as Tachypleus tridentatus)","Gram+ & Gram−, Fungi"
18,"SEQ ID No. 184: synthetic antifungal peptide, Table 1 (YMPQGPRLNLWHW)",Fungi
19,"AC-AMP2: peptide, source Amaranthus caudatus (VGECVRGRCPSGMCCSQFGYCGKGPKYCGR; ends and bridges not checked; cysteine pairing not given here; listed as Amaranthus caudatus)","Gram+, Fungi"
20,Histone H2B-1 (HLP-1) (Fragment): source Rainbow trout (PDPAKTAPKKGSKKAVTKA; Oncorhynchus mykiss; Histone H2B-1(HLP-1)(Fragment)),"Gram+ & Gram−, Fungi"
21,"Pseudo-hevein (Minor hevin): peptide, source Para rubber tree (EQCGRQAGGKLCPNNLCCSQYGWCGSSDDYCSPSKNCQSNCKGGG; Pseudo-hevein (Minor hevein); listed as Hevea brasiliensis)",Fungi
22,"SEQ ID No. 191: synthetic antifungal peptide, Table 1 (WCLFHGEGCW; listed as Cryphonectria parasitica)",Fungi
23,"BMAP-28: peptide, source Bovine (GGLRSLGRKILRAWKKYGPIIVPIIRIG; BMAP-28; listed as Bos taurus)","Gram+ & Gram−, Fungi"
24,Histone H2A (fragment): source Rainbow trout (AERVGAGAPVYL; Oncorhynchus mykiss; Histone H2A (Fragment)),"Gram+, Fungi"
25,"Protegrin 3: peptide, source Pig (RGGGLCYCRRRFCVCVGR; Protegrin 3; listed as Sus scrofa)","Gram+ & Gram−, Virus, Fungi"

row,Substance,Activity
1,"AMP2 (MJ-AMP2): peptide, source Garden four-o'clock (CIGNGGRCNENVGPPYCCSGFCLRQPNQGYGVCRNR; antimicrobial peptidic agent2 (MJ-antimicrobial peptidic agent2); listed as Mirabilis jalapa)","Gram+, Fungi"
2,"SEQ ID No. 183: synthetic antifungal peptide, Table 1 (YMPQGPKLQLWH)",Fungi
3,"SEQ ID No. 39: synthetic antifungal peptide, Table 1 (FHFKLRF)",Fungi
4,"Histatin 3: peptide, source Human (DSHAKRHHGYKRKFHEKHHSHRGYRSNYLYDN; Histatin 3; listed as Homo sapiens)","Gram+ & Gram−, Fungi"
5,"Histatin 5: peptide, source Human (DSHAKRHHGYKRKFHEKHHSHRGY; Histatin 5; listed as Homo sapiens)","Gram+ & Gram−, Fungi"
6,"SEQ ID No. 181: synthetic antifungal peptide, Table 1 (YNLEPQGPKLQLWHW)",Fungi
7,"Ib-AMP3: peptide, source Impatiens balsamina (RHRCCAWGPGRKYCKRWC; Ib-antimicrobial peptidic agent3; listed as Impatiens balsamina)","Gram+, Fungi"
8,"Skin peptide tyrosine-tyrosine: peptide, source Two-colored leaf frog","Gram+ & Gram−, Fungi"
9,"SEQ ID No. 36: synthetic antifungal peptide, Table 1 (KRKLRF)",Fungi
10,"PW2: peptide, source Synthetic (HPLKQYWWRPSI; Synthetic PW2)",Fungi
11,"SEQ ID No. 180: synthetic antifungal peptide, Table 1 (YNLEDHPQGDHPKLQLWHW)",Fungi
12,Alpha-basrubrin (Fragment): source Malabar spinach (GADFQECMKEHSQKQHQHQG; Alpha-basrubrin (Fragment); listed as Basella alba),"Virus, Fungi"
13,"SEQ ID No. 26: synthetic antifungal peptide, Table 1 (LRF)",Fungi
14,"Neutrophil defensin 1 (HANP-1): peptide, source Golden hamster (VTCFCRRRGCASRERHIGYCRFGNTIYRLCCRR; Neutrophil defensin 1 (HANP-1); listed as Mesocricetus auratus)","Gram+, Fungi"
15,"AMP1 (MJ-AMP1): peptide, source Garden four-o'clock (QCIGNGGRCNENVGPPYCCSGFCLRQPGQGYGYCKNR; antimicrobial peptidic agent1 (MJ-antimicrobial peptidic agent1); listed as Mirabilis jalapa)","Gram+, Fungi"
16,"SEQ ID No. 176: synthetic antifungal peptide, Table 1 (CYRFTW)",Fungi
17,"SEQ ID No. 33: synthetic antifungal peptide, Table 1 (VFKLRF)",Fungi
18,RQRVEELSKFSKKGAAARRRK [Misgurin],"Gram+ & Gram−, Fungi"
19,"Lactoferrin (Lf) peptide 2: antimicrobial peptide, Table 1 (FKCRRWQWRM; lactoferrin (Lf) peptide 2)",Fungi
20,"Penaeidin-4a: peptide, source Penoeid shrimp (HSSGYTRPLPKPSRPIFIRPIGCDVCYGIPSSTARLCCFRYGDCCHR; Penaeidin-4a; listed as Penaeus vannamei)","Gram+ & Gram−, Fungi"
21,"SEQ ID No. 30: synthetic antifungal peptide, Table 1 (WLRF)",Fungi
22,"Neutrophil defensin 3 (HANP-3): peptide, source Golden hamster (VTCFCRRRGCASRERLIGYCRFGNTIYGLCCRR; Neutrophil defensin 3 (HANP-3); listed as Mesocricetus auratus)","Gram+, Fungi"
23,"SEQ ID No. 35: synthetic antifungal peptide, Table 1 (IFKLRF)",Fungi
24,"HNP-5 Defensin: peptide, source Human (QARATCYCRTGRCATRESLSGVCEISGRLYRLCCR; HNP-5 Defensin; listed as Homo sapiens)","Gram+ & Gram−, Fungi"

# Same assay, conditions: classes of organisms/cells the peptide is active against; cited from earlier work
row,Substance,Activity
1,"Gomesin: peptide, source Synthetic (QCRRLCYKQRCVTYCRGR; Synthetic Gomesin)","Gram+ & Gram−, Fungi,; also recorded: Mammalian cells"
2,"Ponericin G!: peptide, source Ponerine ant (GWKDWAKKAGGWLKKKGPGMAKAALKAAMQ; Ponericin G1; listed as Pachycondyla goeldii)","Gram+ & Gram−, Fungi"
3,"Androctonin: peptide, source Androctonus Australis (RSVCRQIKICRRRGGCYYKCTNRPY; listed as Androctonus australis)","Gram+ & Gram−, Fungi"
4,"Dhvar4: peptide, source Synthesis (KRLFKKLLFSLRKY; Synthesis dhvar4)","Gram+ & Gram−, Fungi"
5,"Opistoporin 2: peptide, source African yellow leg scorpion (GKVWDWIKSTAKKLWNSEPVKELKNTALNAAKNFVAEKIGATPS; Opistoporin 2; listed as Opistophthalmus carinatus)","Gram+ & Gram−, Fungi,; also recorded: Mammalian cells"
